Measurements from patent publication US10201563B2, “Method of treating sinusitis, including chronic sinusitis” (SINOX PHARMA, INC., priority 2010, dated 2019).

Experiments:
[1] = U.S. Pat. No. 5,731,347; Phase 2 clinical study; cited from earlier work
[2] = system: most microorganisms, including gram negative bacteria, fungal spores, and viruses; format: cell-based
viruses [3] = format: cell-based
viruses [4] = settings: cited from earlier work
flu viruses = settings: cited from earlier work
[5] = Gargle and nasal spray with ClO2 solution in people with sore throat, cold or sinusitis; settings: in vivo

CC(O)C(=O)O (stereo not shown) [lactic acid]
therapy for canker sores in the mouth [1]: excellent therapy

chlorine dioxide
time to kill most microorganisms [2]: about one | deactivation of all viruses (viruses [3]): deactivated in seconds | inactivation of all viruses tested (viruses [4]): inactivated within a minute | kill of all flu viruses (flu viruses): in a few seconds | inflammation and discomfort noted by users [5]: near-immediate reductions | toxicity or irritation to the mucus membranes [5]: non toxic or non-irritating
